Experimental data reported in patent US20250213560A1, “NITROGEN-CONTAINING HETEROCYCLIC COMPOUNDS HAVING PHENYL GROUP AND USES THEREOF” (BNH RESEARCH CO., LTD., priority 2022, published 2025).

Assays:
293T cells = assay: Cytotoxicity test (CCK-8 cell viability) in 293T cells; type: cell-based, human; conditions: 293T cell line
Procedure: Human undifferentiated neuroblastoma cell line SH-SY5Y and human embryonic kidney cell line (HEK)-293T were purchased from Korean Cell Line Bank (Korea) and Takara (Japan), respectively. Cells were grown in HyClone Minimal Essential Medium (MEM) and Dulbecco's Modified Eagle Medium (DMEM), respectively, supplemented with 10% (v/v) fetal bovine serum (FBS), penicillin (100 U/mL), and streptomycin ([…]). Cells were maintained in a humidified atmosphere of 95% air and 5% CO2 at 37° C. Cells were passaged 10 times at maximum. Cells were dissociated using 0.05% trypsin-EDTA solution and the cells were seeded in new culture dishes for maintenance.
To examine the cytotoxicity of compounds described herein in human cell lines, SH-SY5Y and 293T cells were used. Approximately 8,000 cells (for 293T) and 15,000 cells (for SH-SY5Y) were plated per well of a 96-well plate (SPL Life Sciences Co., Ltd., Pocheon, Korea). After incubating at 37° C. for 24 hours in a humidified atmosphere containing 5% CO2, the culture medium was replaced by a series of concentrations of test compounds diluted in the corresponding culture medium.
The time of co-incubation was 24 hours and six replicates were made for each measurement. Finally, 10 μL of CCK-8 reagent (Dojindo Laboratories, Rockville, MD) was added to each well, and after incubation at 37° C. for 3 minutes, the OD at 450 nm was measured using a multifunction microplate reader (Tecan Infinite M200 Pro). These measurements were compared to that of a control and expressed as a percentage of the control to calculate cell viability. The IC50 value was calculated using SPSS software. To do this, the absorbance of the blank wells with only growth medium is subtracted from the values or the wells with cells. The readout value of background (vehicle) was set as a 100% viability, and then the percent viability for each test solution was calculated.
The data was presented as the mean value and standard error of the mean (S.E.M.). Statistical analysis was performed with the one-way ANOVA with Tukey's post hoc test (GraphPad Prism 5 software package, version 5.02, GraphPad Software Inc. USA). Significance was accepted at p<0.05.
The cytotoxicity of the compound was evaluated by treating cells with BnH12003 and measuring cell viability.
By treating cells with various BnH12 series compounds and measuring cell viability using the experimental procedure described in Example 2, the cytotoxicity of the compounds was evaluated.

GluN2B = GluN2B protein expression by Western blot in primary cortical neuron cells; type: cell-based, mouse; conditions: for Western blot results Mean (GluN2B expression): relative value, vehicle set to 1, primary cortical neurons treated for 24 hours; for GluN2B expression effect (in words): compared to vehicle / other compounds, Table 5
Procedure: Meanwhile, primary cortical neuron cells were isolated from cerebral cortices of 18-day-old mouse fetuses, incubated in prep media (composition (mM): NaCl 107.5, NaH2PO4 1, NaHCO333.5, glucose 11, HEPS 1%, penicillin-streptomycin 1%) containing 0.25% trypsin and DNasel for 30 minutes, dissociated into single cells, and seeded. Primary cortical neuron cells were grown in Neurobasal medium supplemented with 1% (v/v) B27, 1% penicillin (100 U/mL), streptomycin ([…]), and 1% Glutamax. Cells were maintained in a humidified atmosphere of 95% air and 5% CO2 at 37° C. Drug efficacy was evaluated after culturing primary cortical neuron cells for 14 days.
The amount of GluN2B reacted with the compound of the present disclosure was measured using Western blot. The fetal cerebral cortex was extracted from mice at 17 days of gestation, dissociated into single cells, cultured for 13 days, and treated with BnH drugs for 24 hours. The drug-treated cells were subjected to protein lysate preparation using RIPA protein lysis buffer containing protease and phosphatase inhibitors. The protein concentration was determined using a BCA protein assay kit (Pierce Biotechnology) using bovine serum albumin as a standard. Equal amounts of protein (20 μg per lane) were separated by electrophoresis on SDS-polyacrylamide gels at 90 V for 2 hours, then transferred from the SDS-polyacrylamide gel to PVDF membrane at 100 V for 1 hour. Then, primary reaction with GluN2B antibody (ab65783, Abcam) was performed at 4° C. for 1 day, washed three times at 10-minutes intervals with 1×PBT, and secondary reaction was performed with anti-mouse antibody (sc-2357, Santa Cruz) for 1 hour, followed by washing three times at 10-minutes intervals with 1×PBT. Western blotting was performed as described above to confirm GluN2B protein expression. Subsequently, each blot was re-probed using anti-β-actin antibody (sc-47778, Santa Cruz). Housekeeping protein B-actin was detected as a normalization control.
The increase and decrease of BnH12 series were confirmed by setting the vehicle to 1 (N for each group was 3 or more).
Using the experimental procedure described in Example 3, it was determined whether various BnH12 series compounds increase GluN2B expression, and the results are shown in Table 5. These in vitro experimental results are expressed as relative values to the group (vehicle) that was not treated with the compound, with the effect of the group set to 1.

| Compound | Cell viability test results (CCK) 10 uM (293T cells) [%<] | Cell viability test results (CCK) 100 uM (293T cells) [%<] | Western blot results Mean (GluN2B expression) (GluN2B) | GluN2B expression effect (in words) (GluN2B) |
| --- | --- | --- | --- | --- |
| C[C@@H]1CC[C@H](C(=O)O)CN1C(=O)Cc1ccc(-c2cncnc2)cc1 [BnH12071, (3S,6R)-6-methyl-1-(2-(4-(pyrimidin-5-yl)phenyl)acetyl) piperidine-3-carboxylic acid] | 80 | 75 | 1.799 |  |
| C[C@H]1CC[C@@H](C(=O)O)CN1C(=O)Cc1ccc(-c2cccc([N+](=O)[O-])c2)cc1 [BnH12072, (3R,6S)-6-methyl-1-(2-(3′-nitro-8 1,l′-biphenyl9-4-yl)acetyl) piperidine-3-carboxylic acid] | 90 | 80 | 1.822 |  |
| C[C@H]1CC[C@@H](C(=O)O)CN1C(=O)Cc1cccc(-c2ccccc2)c1 [BnH12078] | 90 | 75 | 1.017 |  |
| C[C@H]1CC[C@@H](C(=O)O)CN1C(=O)Cc1ccc(-c2ccc(C3CCCCC3)cc2)cc1 [BnH12085, (3R,6S)-1-(2-(4′-cyclohexyl-8 1,l′-biphenyl9-4-yl)acetyl)-6-methylpiperidine-3-carboxylic acid] | 30 | 0 | 1.557 |  |
| C[C@H]1CC[C@@H](C(=O)O)CN1C(=O)Cc1ccc(-c2ccc(N)cc2)cc1 [BnH12086, (3R,6S)-1-(2-(4′-amino-8 1,l′-biphenyl9-4-yl)acetyl)-6-methylpiperidine-3-carboxylic acid] | 80 | 70 | 1.753 |  |
| C[C@H]1CC[C@@H](C(=O)O)CN1C(=O)Cc1ccc(-c2cccc(N)c2)cc1 [BnH12088, (3R,6S)-1-(2-(3′-amino-8 1,l′-biphenyl9-4-yl)acetyl)-6-methylpiperidine-3-carboxylic acid] | 90 | 90 | 1.219 |  |
| C[C@H]1CC[C@@H](C(=O)O)CN1C(=O)Cc1ccc(-c2ccc(-c3cccnc3)cc2)cc1 [BnH12089, (3R,6S)-6-methyl-1-(2-(4'-(pyridin-3-yl)-[1,1'-biphenyl]-4-yl)acetyl)piperidine-3-carboxylic acid] | 65 | 55 | 1.409 |  |
| CCN(CC)c1ccc(-c2ccc(CC(=O)N3C[C@H](C(=O)O)CC[C@@H]3C)cc2)cc1 [BnH12090, (3R,6S)-1-(2-(4′-(diethylamino)-8 1,1′-biphenyl9-4-yl)acetyl)-6-methylpiperidine-3-carboxylic acid] | 85 | 30 | 1.698 |  |
| C[C@H]1CC[C@@H](C(=O)O)CN1C(=O)Cc1cccc(-c2ccncc2)c1 [BnH12091, (3R,6S)-6-methyl-1-(2-(3-(pyridin-4-yl)phenyl)acetyl) piperidine-3-carboxylic acid] | 95 | 85 | 5.013 | excellent effects |
| COc1ccc(-c2cccc(CC(=O)N3C[C@H](C(=O)O)CC[C@@H]3C)c2)cn1 [BnH12092, (3R,6S)-1-(2-(3-(6-methoxypyridin-3-yl)phenyl)acetyl)-6-methylpiperidine-3-carboxylic acid] | 90 | 75 | 3.524 | excellent effects |
| C[C@H]1CC[C@@H](C(=O)O)CN1C(=O)Cc1cccc(-c2ncc(F)cn2)c1 [BnH12093, (3R,6S)-1-(2-(3-(5-fluoropyrimidin-2-yl)phenyl)acetyl)-6-methylpiperidine-3-carboxylic acid] | 85 | 80 | 1.611 |  |
| C[C@H]1CC[C@@H](C(=O)O)CN1C(=O)Cc1cccc(-c2cncnc2)c1 [BnH12095, (3R,6S)-6-methyl-1-(2-(3-(pyrimidin-5-yl)phenyl)acetyl) piperidine-3-carboxylic acid] | 80 | 75 | 2.871 | excellent effects |
